Experimental data: patent publication US20150105252A1, “SUBSTITUTED PYRAZOLES AS HERBICIDES” (E I DU PONT DE NEMOURS AND COMPANY, priority 2013, published 2015)

Columns and labels:
[1] = tested on: blackgrass; experiment: Test D preemergence; type: in vivo, Alopecurus myosuroides; settings: Preemergence, scale 0 to 100
Procedure, shortened: (§1)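 Visual injury scored 0–100 (0 none, 100 complete control) against controls 14–21 days after treatment in a controlled growth environment. Chemicals were formulated in a non-phytotoxic solvent mixture containing surfactant, applied to silt loam soil preemergence or to 1- to 4-leaf plants postemergence.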

[2] = tested on: galium; experiment: Test D preemergence; type: in vivo, Galium aparine; settings: Preemergence, scale 0 to 100
Procedure, shortened: as §1

[3] = tested on: bromegrass, downy; experiment: Test D preemergence; type: in vivo, Bromus tectorum; settings: Preemergence, scale 0 to 100
Procedure, shortened: as §1

[4] = tested on: kochia; experiment: Test D preemergence; type: in vivo, Kochia scoparia; settings: Preemergence, scale 0 to 100
Procedure, shortened: as §1

[5] = tested on: lambsquarters; experiment: Test D preemergence; type: in vivo, Chenopodium album; settings: Preemergence, scale 0 to 100
Procedure, shortened: as §1

[6] = tested on: chamomile; experiment: Test D preemergence; type: in vivo, Matricaria inodora; settings: Preemergence, scale 0 to 100
Procedure, shortened: as §1

[7] = tested on: oat, wild; experiment: Test D preemergence; type: in vivo, Avena fatua; settings: Preemergence, scale 0 to 100
Procedure, shortened: as §1

[8] = tested on: bluegrass; experiment: Test D postemergence; type: in vivo, Poa annua; settings: scale 0 to 100
Procedure, shortened: as §1

[9] = tested on: canarygrass; experiment: Test D postemergence; type: in vivo, Phalaris minor; settings: scale 0 to 100
Procedure, shortened: as §1

[10] = tested on: bromegrass, downy; experiment: Test D postemergence; type: in vivo, Bromus tectorum; settings: scale 0 to 100
Procedure, shortened: as §1

[11] = tested on: field poppy; experiment: Test D postemergence; type: in vivo, Papaver rhoeas; settings: scale 0 to 100
Procedure, shortened: as §1

[12] = tested on: field violet; experiment: Test D postemergence; type: in vivo, Viola arvensis; settings: scale 0 to 100
Procedure, shortened: as §1

[13] = tested on: lambsquarters; experiment: Test D postemergence; type: in vivo, Chenopodium album; settings: scale 0 to 100
Procedure, shortened: as §1

[14] = tested on: oilseed rape; experiment: Test D postemergence; type: in vivo, Brassica napus; settings: scale 0 to 100
Procedure, shortened: as §1

[15] = tested on: chamomile; experiment: Test D postemergence; type: in vivo, Matricaria inodora; settings: scale 0 to 100
Procedure, shortened: as §1

[16] = tested on: speedwell; experiment: Test D postemergence; type: in vivo, Veronica persica; settings: scale 0 to 100
Procedure, shortened: as §1

[17] = tested on: mustard, wild; experiment: Test D postemergence; type: in vivo, Sinapis arvensis; settings: scale 0 to 100
Procedure, shortened: as §1

[18] = tested on: oat, wild; experiment: Test D postemergence; type: in vivo, Avena fatua; settings: scale 0 to 100
Procedure, shortened: as §1

[19] = tested on: radish, wild; experiment: Test D postemergence; type: in vivo, Raphanus raphanistrum; settings: scale 0 to 100
Procedure, shortened: as §1

[20] = tested on: windgrass; experiment: Test D postemergence; type: in vivo, Apera spica-venti; settings: scale 0 to 100
Procedure, shortened: as §1

CCc1cc(C(=O)NCC(F)(F)F)nn1Cc1ccnc(SC(F)(F)F)c1 [Compound 214]
15: Plant response rating, Bromegrass, Downy ([3]; 31 g ai/ha) | Bluegrass plant response rating ([8]; Postemergence, 31 g ai/ha) | Bluegrass plant response rating ([8]; Postemergence, 125 g ai/ha) | Bluegrass plant response rating ([8]; postemergence, 62 g ai/ha) | Canarygrass plant response rating ([9]; Postemergence, 31 g ai/ha) | Canarygrass plant response rating ([9]; Postemergence, 125 g ai/ha) | Canarygrass plant response rating ([9]; postemergence, 62 g ai/ha) | Bromegrass, Downy plant response rating ([10]; Postemergence, 31 g ai/ha) | Bromegrass, Downy plant response rating ([10]; postemergence, 62 g ai/ha) | Oat, Wild plant response rating ([18]; Postemergence, 31 g ai/ha) | Oat, Wild plant response rating ([18]; postemergence, 62 g ai/ha)
90: Plant response rating, Blackgrass ([1]; 125 g ai/ha) | Plant response rating, Lambsquarters ([5]; 62 g ai/ha) | Lambsquarters plant response rating ([13]; Postemergence, 250 g ai/ha) | Speedwell plant response rating ([16]; Postemergence, 31 g ai/ha) | Speedwell plant response rating ([16]; postemergence, 62 g ai/ha)
35: Plant response rating, Blackgrass ([1]; 31 g ai/ha) | Plant response rating, Bromegrass, Downy ([3]; 125 g ai/ha)
85: Plant response rating, Galium ([2]; 62 g ai/ha)
20: Plant response rating, Oat, Wild ([7]; 62 g ai/ha) | Bluegrass plant response rating ([8]; Postemergence, 250 g ai/ha) | Bromegrass, Downy plant response rating ([10]; Postemergence, 125 g ai/ha) | Bromegrass, Downy plant response rating ([10]; Postemergence, 250 g ai/ha) | Oat, Wild plant response rating ([18]; Postemergence, 125 g ai/ha) | Windgrass plant response rating ([20]; Postemergence, 31 g ai/ha) | Windgrass plant response rating ([20]; postemergence, 62 g ai/ha)
95: Plant response rating, Oat, Wild ([7]; 250 g ai/ha) | Speedwell plant response rating ([16]; Postemergence, 125 g ai/ha)
50: Plant response rating, Chamomile ([6]; 31 g ai/ha)
100: Plant response rating, Blackgrass ([1]; 250 g ai/ha) | Plant response rating, Galium ([2]; 125 g ai/ha) | Plant response rating, Galium ([2]; 250 g ai/ha) | Plant response rating, Kochia ([4]; 125 g ai/ha) | Plant response rating, Kochia ([4]; 250 g ai/ha) | Plant response rating, Lambsquarters ([5]; 125 g ai/ha) | Plant response rating, Lambsquarters ([5]; 250 g ai/ha) | Plant response rating, Chamomile ([6]; 62 g ai/ha) | Plant response rating, Chamomile ([6]; 125 g ai/ha) | Plant response rating, Chamomile ([6]; 250 g ai/ha) | Field Violet plant response rating ([12]; Postemergence, 31 g ai/ha) | Field Violet plant response rating ([12]; Postemergence, 125 g ai/ha) | Field Violet plant response rating ([12]; Postemergence, 250 g ai/ha) | Field Violet plant response rating ([12]; postemergence, 62 g ai/ha) | Oilseed Rape plant response rating ([14]; Postemergence, 250 g ai/ha) | Speedwell plant response rating ([16]; Postemergence, 250 g ai/ha) | Mustard, Wild plant response rating ([17]; Postemergence, 125 g ai/ha) | Mustard, Wild plant response rating ([17]; Postemergence, 250 g ai/ha) | Radish, Wild plant response rating ([19]; Postemergence, 250 g ai/ha)
70: Plant response rating, Kochia ([4]; 62 g ai/ha) | Plant response rating, Oat, Wild ([7]; 125 g ai/ha) | Field Poppy plant response rating ([11]; Postemergence, 31 g ai/ha) | Field Poppy plant response rating ([11]; Postemergence, 125 g ai/ha) | Field Poppy plant response rating ([11]; postemergence, 62 g ai/ha) | Chamomile plant response rating ([15]; Postemergence, 250 g ai/ha) | Mustard, Wild plant response rating ([17]; Postemergence, 31 g ai/ha) | Mustard, Wild plant response rating ([17]; postemergence, 62 g ai/ha) | Radish, Wild plant response rating ([19]; Postemergence, 125 g ai/ha)
30: Canarygrass plant response rating ([9]; Postemergence, 250 g ai/ha) | Windgrass plant response rating ([20]; Postemergence, 125 g ai/ha)
25: Plant response rating, Bromegrass, Downy ([3]; 62 g ai/ha)
65: Lambsquarters plant response rating ([13]; Postemergence, 31 g ai/ha) | Lambsquarters plant response rating ([13]; postemergence, 62 g ai/ha) | Oilseed Rape plant response rating ([14]; Postemergence, 31 g ai/ha) | Oilseed Rape plant response rating ([14]; postemergence, 62 g ai/ha) | Radish, Wild plant response rating ([19]; Postemergence, 31 g ai/ha) | Radish, Wild plant response rating ([19]; postemergence, 62 g ai/ha)
60: Chamomile plant response rating ([15]; Postemergence, 125 g ai/ha)
75: Plant response rating, Blackgrass ([1]; 62 g ai/ha) | Oilseed Rape plant response rating ([14]; Postemergence, 125 g ai/ha)
40: Chamomile plant response rating ([15]; Postemergence, 31 g ai/ha) | Chamomile plant response rating ([15]; postemergence, 62 g ai/ha) | Oat, Wild plant response rating ([18]; Postemergence, 250 g ai/ha) | Windgrass plant response rating ([20]; Postemergence, 250 g ai/ha)
80: Plant response rating, Bromegrass, Downy ([3]; 250 g ai/ha) | Field Poppy plant response rating ([11]; Postemergence, 250 g ai/ha) | Lambsquarters plant response rating ([13]; Postemergence, 125 g ai/ha)
